This test can be described thus: Sensory comparison of flavored formulation examples with the flavor not according to the invention. The class given is in vivo.

From US9743685B2, “Mixtures having improved cooling effect” (SYMRISE AG, priority 2012, dated 2017) come the findings set out here.

As to `C/C=C(/C=O)c1ccccc1` [2-phenyl-but-2-enal, 2-Phenyl-but-2-enal], the “Sensory effect compared to the flavor not according to the invention” value runs as follows: (standard chewing gum, 2% peppermint type flavor (Example 2.11)) “intensified feeling of freshness together with an increased menthol taste and perception of coolness”; (sugar-free chewing gum, 1% Cinnamon type flavor Cool (Example 2.10), especially in the initial phase of consumption) “intensified feeling of freshness together with an increased menthol taste and perception of coolness”; (toothpaste (Silica opaque), 1% peppermint type flavor Cool (Example 2.14)) “fresher mouthfeel together with an increased menthol taste and perception of coolness”; (toothpaste (phosphate base), 1% spearmint type flavor (Example 2.12), especially at the start of brushing) “definite feeling of freshness together with an increased menthol taste and perception of coolness”; (toothpaste (transparent gel), 1% cinnamon type flavor (Example 2.13)) “clearer freshness profile together with an increased menthol taste and perception of coolness”.
